Test results: patent publication US20080026073A1, “METHOD AND COMPOSITION FOR LITHIUM ADDITIVE IN TREATMENT OF GLUTAMATE TOXICITY” (priority 2006, published 2008)

Test system: retinal ganglion cells
Assay: NMDA-induced glutamate toxicity mouse model for glaucoma: count of surviving retinal ganglion cells after oral feeding
Type: in vivo, mice
Details: for survival efficacy (percent of retinal ganglion cells that survive relative to no treatment): Example 3, FIG. 3, separate mouse pools

O=C([O-])c1cc(=O)[nH]c(=O)[nH]1.[Li+] [Lithium, lithium orotate]
increase in the surviving ganglion cells (Example 1, FIG. 1, mice, oral ingestion, human equivalent dosage Lithium 5.8 mg lithium orotate per day, St. Johns Wort 2-4 grams per day): about 15%
survival rate of retinal ganglion cells (Example 2, FIG. 2, mice, gavage eight days, intravitreal NMDA 150 mM 0.5 microliter after six days, Li orotate 63 μg/day, herb 32 mg per mouse per day): about 15%
survival efficacy (percent of retinal ganglion cells that survive relative to no treatment) (1/5th the dosage, human equivalent 1.16 mg lithium orotate): approximately 13%
survival efficacy (percent of retinal ganglion cells that survive relative to no treatment) (5 times the dosage, human equivalent 29 mg lithium orotate): approximately 8%
